Source: patent US9226942B2, “Expanding hematopoietic stem cells” (priority 2010, dated 2016)

How the values were obtained:
human CD34+ cells = assay: SR1-mediated expansion of human CD34+ cells; assay type: cell-based
VentX = assay: Quantitative (RT-)PCR of VentX expression in CD34+ cells; assay type: cell-based, human
Source text: Bone marrow (BW) samples were obtained from discarded femoral head tissue after hip replacement surgery from Brigham and Women's Hospital, with institutional IRB approval. After Ficoll separation of mononuclear cells, CD34+ cells were enriched using magnetically activated cell sorting CD34^+ progenitor kit (Miltenyi Biotec). The purity of the BW CD34+ cells was over 95%, as assessed by flow cytometry as described in Rizo et al., 2008.
Total RNA was isolated by the TRIzol method, and same amount of RNA was used for first-strand cDNA synthesis with SuperSript First-Strand Synthesis System (Invitrogen) according to the manufacturer's protocol. To determine VentX mRNA level, the cDNA was then used for real-time PCR of VentX with primers: 5′-CCGTCAGCATCAAGGAGG-3′ (SEQ ID NO: 19) and 5′-CTGGACCTCTGAGAGCTGC-3′ (SEQ ID NO: 20). Real-time PCR was also performed with SYBR Green on a LightCycler® 480 system (480 Real-Time PCR System; Roche).
Briefly, the lentiviral vector pHAGE-CMV-eGFPW that expresses a shRNA targeting VentX (pHAGE-shVentX) was used for the transduction of bone marrow CD34+ cells. This lentiviral vector contains an internal ribosome entry site (IRES) that allows simultaneous expression of GFP to monitor transduction rate or for cell sorting. The corresponding DNA sequence of VentX shRNA is SEQ ID NO: 12 or 14. […]

BW CD34+ cells = assay: Cytokine supplemented stroma-free liquid culture of CD34+ cells (cell counts, FACS); assay type: cell-based, human
CD34+ cells = assay: In vitro colony-forming cell (CFC) assay; assay type: cell-based, human
Experimental: Assays for in vitro colony-forming cells (CFCs) were performed by plating sorted GFP positive CD34+ cells (1×10^4 per dish) in triplicates in complete methylcellulose medium (Methocult G F, H4434; Stem Cell Technologies), which contains a mixture of recombinant human cytokines (SCF, IL-3, GM-CSF, and erythropoietin). Colonies were counted after 14 days of incubation at 37° C. and classified according to standard criteria.
Human BW CD34+ cells were obtained as described in Example 1. These cells were transfected with pCS2-GFP or pCS2-GFPVentX plasmid using the Human CD34+ cell Nucleofector Kit (Lonza) as described above. GFP-positive cells were sorted by FACSAria high-speed sorter after transfected for 24 hours.

[1] = colonies counted after 14 days, vs GFP control

CC(C)n1cnc2c(NCCc3ccc(O)cc3)nc(-c3csc4ccccc34)nc21 [SR1, StemRegenin 1, reference compound]
expansion of CD34+ cells (human CD34+ cells): increased | expression of VentX in the CD34+ cells (VentX): inhibited

siVentX: short oligonucleotides targeting VentX, siRNA SEQ ID NO: 5 (UUCAGAAUCGCCGCAUGAAACACAAACGG) (listed as RNA, chemistry not given here)
expansion of HSCs in comparison with siGFP-transfected cells (BW CD34+ cells; 2 weeks culture): ~2 fold | percentage of CD34+ cells (BW CD34+ cells; siRNA-transfected cells): an increase | increase in total number of progeny cells (CD34+ cells; based on the CFC assay): ~2 fold | increase in formation of BFU-E/CFU-E colonies (CD34+ cells; [1]): ~2 fold | increase in formation of CFU-GM colonies (CD34+ cells; [1]): ~2 fold | knockdown of VentX in CD34+ cells (VentX; quantitative PCR / RT-PCR): ~70%
